The values that follow come from patent US20240366770A1, “DEGRADATION OF BRUTON'S TYROSINE KINASE (BTK) BY CONJUGATION OF BTK INHIBITORS WITH E3 LIGASE LIGAND AND METHODS OF USE” (BeiGene Switzerland GmbH, priority 2021, published 2024).

A value given as a limit tells only on which side of the number the result lay.

One test deals with HEK-293 cells. The experiment in a line: HEK-293 cytotoxicity detection (CellTiter-Glo). The class given is cell-based. Conditions: Homo sapiens; HEK-293 cells, 72 h incubation, CellTiter-Glo luminescence, IC50 of cell proliferation inhibition; read-out: HEK293. In short, it runs like this:
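Four-parameter logistic fitting of percent inhibition versus concentration gives IC50. Luminescent ATP read-out (CellTiter-Glo) after 72 h compound treatment of HEK-293 cells, 8 doses in 4-fold steps from a 5 mM 500× DMSO stock, final DMSO 0.2%.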

A further test has as its target T1, BTK (Homo sapiens, UniProt Q06187).
T1 construct: High control=Cell group with added DMSO and without compound, indicating microplate readings without BTK degradation; endogenous in cells; host or cells: TMD-8
The test is described as follows: BTK degradation in TMD-8 cells (HTRF assay). The class given is cell-based. Conditions: 6 h treatment, IC50 (DC50) of BTK degradation. In short, it runs like this:
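BTK remaining after compound treatment was measured by HTRF (337 nm excitation, 665/620 nm emission) in lysates of TMD-8 cells. Cells were exposed for 6 h to eight 6-fold-spaced concentrations in 0.2% DMSO. DC50 values were obtained from a Hill-equation fit (top, bottom, slope) of % inhibition.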

T1 sequence (Q06187 whole entry): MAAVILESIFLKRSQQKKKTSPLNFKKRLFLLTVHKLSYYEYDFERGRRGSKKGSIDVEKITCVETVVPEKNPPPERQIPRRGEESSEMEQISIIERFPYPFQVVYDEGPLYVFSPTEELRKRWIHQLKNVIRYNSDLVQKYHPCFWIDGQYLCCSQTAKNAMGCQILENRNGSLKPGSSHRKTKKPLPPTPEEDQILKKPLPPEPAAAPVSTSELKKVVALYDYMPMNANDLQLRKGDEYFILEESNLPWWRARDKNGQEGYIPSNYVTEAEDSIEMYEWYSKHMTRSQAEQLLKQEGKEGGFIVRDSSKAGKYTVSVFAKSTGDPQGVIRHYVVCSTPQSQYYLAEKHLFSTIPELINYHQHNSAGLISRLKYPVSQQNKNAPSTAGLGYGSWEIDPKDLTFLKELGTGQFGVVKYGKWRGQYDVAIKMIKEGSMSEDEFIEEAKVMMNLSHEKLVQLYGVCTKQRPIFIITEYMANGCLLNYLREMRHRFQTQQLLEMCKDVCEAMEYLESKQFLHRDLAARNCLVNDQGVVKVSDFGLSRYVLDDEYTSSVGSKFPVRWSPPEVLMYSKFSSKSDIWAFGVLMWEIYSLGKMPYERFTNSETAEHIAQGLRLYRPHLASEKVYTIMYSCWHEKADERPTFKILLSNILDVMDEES

For the compound `Cc1cc(-c2ncnc3[nH]c4ccc(C5CCN(CC6CCN(c7ccc(N8CCC(=O)NC8=O)cc7)CC6)CC5)cc4c23)ccc1CNC(=O)c1nc(C(C)(C)C)no1` [Example 2, 3-(tert-butyl)-N-(4-(6-(1-((1-(4-(2,4-dioxotetrahydropyrimidin-1(2H)-yl)phenyl)piperidin-4-yl)methyl)piperidin-4-yl)-9H-pyrimido[4,5-b]indol-4-yl)-2-methylbenzyl)-1,2,4-oxadiazole-5-carboxamide], in the test on HEK-293 cells, the IC50 is 3.95 µM. Also, the DC50 on BTK was > 2 µM.
With `COc1cc2c(cc1N1CCN([C@H]3C[C@@H](c4ccc(N[C@H]5CCC(=O)NC5=O)cc4)C3)CC1)[nH]c1ncnc(-c3cc(C)c([C@@H](C)NC(=O)c4nc(C5(C)CC5)no4)cc3F)c12` [Example 95, N—((R)-1-(4-(7-(4-((1R,3s)-3-(4-(((S)-2,6-dioxopiperidin-3-yl)amino)phenyl)cyclobutyl)piperazin-1-yl)-6-methoxy-9H-pyrimido[4,5-b]indol-4-yl)-5-fluoro-2-methylphenyl)ethyl)-3-(1-methylcyclopropyl)-1,2,4-oxadiazole-5-carboxamide], in the test with HEK-293 cells, the IC50 was > 10 µM. Further, at BTK, half-maximal degradation (DC50) was put at 0.00049 µM.
In the same order, the values of `CC(C)(C)c1noc(C(=O)NCC2CCN(c3ncnc4[nH]c5cc(N6CCN(CC7CCN(c8ccc(N9CCC(=O)NC9=O)cc8)CC7)CC6)ccc5c34)CC2)n1` [Example 70, 3-(tert-butyl)-N-((1-(7-(4-((1-(4-(2,4-dioxotetrahydropyrimidin-1(2H)-yl)phenyl)piperidin-4-yl)methyl)piperazin-1-yl)-9H-pyrimido[4,5-b]indol-4-yl)piperidin-4-yl)methyl)-1,2,4-oxadiazole-5-carboxamide] are 1.99 µM and 0.14 µM.
Turning to `Cc1cc(-c2ncnc3[nH]c4c(c23)CCC(N2CCN(CC3CCN(c5ccc(N6CCC(=O)NC6=O)cc5)CC3)CC2)C4)ccc1[C@@H](C)NC(=O)c1nc(C(C)(C)C)no1` (stereo partly drawn) [Example 132, 3-(tert-butyl)-N-((1R)-1-(4-(7-(4-((1-(4-(2,4-dioxotetrahydropyrimidin-1(2H)-yl)phenyl)piperidin-4-yl)methyl)piperazin-1-yl)-6,7,8,9-tetrahydro-5H-pyrimido[4,5-b]indol-4-yl)-2-methylphenyl)ethyl)-1,2,4-oxadiazole-5-carboxamide], in the test on HEK-293 cells, the IC50 was > 10 µM. In addition, on BTK, the DC50 was > 2 µM.
For `Cc1cc(-c2ncnc3[nH]c4cc(N5CCC6(CC5)CCN([C@H]5C[C@@H](c7ccc([C@@H]8CCC(=O)NC8=O)cc7)C5)CC6)ccc4c23)ccc1[C@@H](C)NC(=O)c1nc(C(C)(C)C)no1` [Example 111, 3-(tert-butyl)-N—((R)-1-(4-(7-(9-((1R,3s)-3-(4-((S)-2,6-dioxopiperidin-3-yl)phenyl)cyclobutyl)-3,9-diazaspiro[5.5]undecan-3-yl)-9H-pyrimido[4,5-b]indol-4-yl)-2-methylphenyl)ethyl)-1,2,4-oxadiazole-5-carboxamide], in the test with HEK-293 cells, the IC50 is 1.37 µM. In addition, at BTK, it took 0.00289 µM to reach half-maximal degradation (DC50).
In the same order, the values of `Cc1cc(-c2ncnc3[nH]c4cc(N5CCN(C6CC(c7ccc(N8CCC(=O)NC8=O)cc7)C6)CC5)ccc4c23)ccc1[C@@H](C)NC(=O)c1nc(C2(C)CC2)no1` (stereo partly drawn) [Example 125, (R)—N-(1-(4-(7-(4-(3-(4-(2,4-dioxotetrahydropyrimidin-1(2H)-yl)phenyl)cyclobutyl)piperazin-1-yl)-9H-pyrimido[4,5-b]indol-4-yl)-2-methylphenyl)ethyl)-3-(1-methylcyclopropyl)-1,2,4-oxadiazole-5-carboxamide] are > 10 µM and 0.000197 µM.
In the same order, the values of `Cc1cc(-c2ncnc3[nH]c4c(c23)CCC(N2CCN(C3CC(c5ccc([C@H]6CCC(=O)NC6=O)cc5)C3)CC2)C4)ccc1[C@@H](C)NC(=O)c1nc(C(C)(C)C)no1` (stereo partly drawn) [Example 133, 3-(tert-butyl)-N-((1R)-1-(4-(7-(4-(3-(4-((R)-2,6-dioxopiperidin-3-yl)phenyl)cyclobutyl)piperazin-1-yl)-6,7,8,9-tetrahydro-5H-pyrimido[4,5-b]indol-4-yl)-2-methylphenyl)ethyl)-1,2,4-oxadiazole-5-carboxamide] are > 10 µM and > 2 µM.
Regarding `Cc1cc(-c2ncnc3[nH]c4cc(CCN5CCN(C6CN(c7ccc(N8CCC(=O)NC8=O)cc7)C6)CC5)ccc4c23)ccc1[C@@H](C)NC(=O)c1nc(C(C)(C)C)no1` [Example 105, (R)-3-(tert-butyl)-N-(1-(4-(7-(2-(4-(1-(4-(2,4-dioxotetrahydropyrimidin-1(2H)-yl)phenyl)azetidin-3-yl)piperazin-1-yl)ethyl)-9H-pyrimido[4,5-b]indol-4-yl)-2-methylphenyl)ethyl)-1,2,4-oxadiazole-5-carboxamide], the IC50 in the test with HEK-293 cells is > 10 µM. Also, at BTK, the DC50 was 0.000512 µM.
`Cc1c([C@@H](C)NC(=O)c2noc(C(C)(C)C)n2)ccc(-c2ncnc3[nH]c4cc(N5CCN(Cc6cccc7c6C(C)(C)C(=O)N7C6CCC(=O)NC6=O)CC5)ccc4c23)c1F` (stereo partly drawn) [Example 84, 5-(tert-butyl)-N-((1R)-1-(4-(7-(4-((1-(2,6-dioxopiperidin-3-yl)-3,3-dimethyl-2-oxoindolin-4-yl)methyl)piperazin-1-yl)-9H-pyrimido[4,5-b]indol-4-yl)-3-fluoro-2-methylphenyl)ethyl)-1,2,4-oxadiazole-3-carboxamide]: the IC50 in the test with HEK-293 cells was > 10 µM. On BTK, the 50% degradation concentration (DC50) is 0.00815 µM.
As to `Cc1cc(-c2ncnc3[nH]c4cc(C5CCN(CC6CCN(c7ccc(N8CCC(=O)NC8=O)cc7)CC6)CC5)ccc4c23)ccc1CNC(=O)c1nc(C(C)(C)C)no1` [Example 4, 3-(tert-butyl)-N-(4-(7-(1-((1-(4-(2,4-dioxotetrahydropyrimidin-1(2H)-yl)phenyl)piperidin-4-yl)methyl)piperidin-4-yl)-9H-pyrimido[4,5-b]indol-4-yl)-2-methylbenzyl)-1,2,4-oxadiazole-5-carboxamide], the IC50 with HEK-293 cells is 3.66 µM. At BTK, this compound gave a DC50 of 0.000294 µM.
Consider `COc1cc2c(cc1N1CCN(Cc3ccc(SC4CCC(=O)NC4=O)cc3)CC1)[nH]c1ncnc(-c3ccc([C@@H](C)NC(=O)c4nc(C5(C)CC5)no4)c(C)c3)c12` (stereo partly drawn) [Example 77, N-((1R)-1-(4-(7-(4-(4-((2,6-dioxopiperidin-3-yl)thio)benzyl)piperazin-1-yl)-6-methoxy-9H-pyrimido[4,5-b]indol-4-yl)-2-methylphenyl)ethyl)-3-(1-methylcyclopropyl)-1,2,4-oxadiazole-5-carboxamide], for which the IC50 in the test on HEK-293 cells is > 10 µM. This compound also yielded a DC50 on BTK of 0.00848 µM.
For `Cc1cc(-c2ncnc3[nH]c4cc(N5CCN(CC6CCN(c7ccc(N8CCC(=O)NC8=O)cc7)CC6)CC5)c(C)cc4c23)c(F)cc1[C@@H](C)NC(=O)c1noc(C(C)(C)C)n1` [Example 44, (R)-5-(tert-butyl)-N-(1-(4-(7-(4-((1-(4-(2,4-dioxotetrahydropyrimidin-1(2H)-yl)phenyl)piperidin-4-yl)methyl)piperazin-1-yl)-6-methyl-9H-pyrimido[4,5-b]indol-4-yl)-5-fluoro-2-methylphenyl)ethyl)-1,2,4-oxadiazole-3-carboxamide], in that order: > 10 µM and 0.00138 µM.
In the case of `Cc1cc(-c2ncnc3[nH]c4cc(N5CCN([C@H]6C[C@@H](c7ccc(NC8CCC(=O)NC8=O)cc7)C6)CC5)ccc4c23)ccc1[C@@H](C)NC(=O)c1nc(C2(C)CC2)no1` (stereo partly drawn) [Example 115, N-((1R)-1-(4-(7-(4-((1s,3s)-3-(4-((2,6-dioxopiperidin-3-yl)amino)phenyl)cyclobutyl)piperazin-1-yl)-9H-pyrimido[4,5-b]indol-4-yl)-2-methylphenyl)ethyl)-3-(1-methylcyclopropyl)-1,2,4-oxadiazole-5-carboxamide], the IC50 in the test with HEK-293 cells is > 10 µM. Moreover, the DC50 at BTK amounted to 0.000759 µM.
In the case of `Cc1cc(-c2ncnc3[nH]c4cc(N5CCC6(CC5)CCN([C@H]5C[C@@H](c7ccc([C@H]8CCC(=O)NC8=O)cc7)C5)CC6)ccc4c23)ccc1[C@@H](C)NC(=O)c1nc(C(C)(C)C)no1` [Example 113, 3-(tert-butyl)-N—((R)-1-(4-(7-(9-((1S,3s)-3-(4-((R)-2,6-dioxopiperidin-3-yl)phenyl)cyclobutyl)-3,9-diazaspiro[5.5]undecan-3-yl)-9H-pyrimido[4,5-b]indol-4-yl)-2-methylphenyl)ethyl)-1,2,4-oxadiazole-5-carboxamide], the IC50 with HEK-293 cells was found to be 1.12 µM. For the same compound, the DC50 at BTK was determined as 0.00346 µM.
For the compound `COc1cc2c(cc1N1CCN(Cc3ccc4c(c3)C(C)(C)C(=O)N4C3CCC(=O)NC3=O)CC1)[nH]c1ncnc(-c3cc(C)c([C@@H](C)NC(=O)c4nc(C(C)(C)C)no4)cc3F)c12` (stereo partly drawn) [Example 83, 3-(tert-butyl)-N-((1R)-1-(4-(7-(4-((1-(2,6-dioxopiperidin-3-yl)-3,3-dimethyl-2-oxoindolin-5-yl)methyl)piperazin-1-yl)-6-methoxy-9H-pyrimido[4,5-b]indol-4-yl)-5-fluoro-2-methylphenyl)ethyl)-1,2,4-oxadiazole-5-carboxamide], the IC50 in the test with HEK-293 cells is > 10 µM. The same compound returned a DC50 at BTK of 0.00242 µM.
In the same order, the values of `Cc1cc(-c2ncnc3[nH]c4cc([C@H]5CCN(CC6CCN(c7ccc(N8CCC(=O)NC8=O)cc7)CC6)C5)ccc4c23)ccc1[C@@H](C)NC(=O)c1nc(C(C)(C)C)no1` [Example 14, 3-(tert-butyl)-N—((R)-1-(4-(7-((R)-1-((1-(4-(2,4-dioxotetrahydropyrimidin-1(2H)-yl)phenyl)piperidin-4-yl)methyl)pyrrolidin-3-yl)-9H-pyrimido[4,5-b]indol-4-yl)-2-methylphenyl)ethyl)-1,2,4-oxadiazole-5-carboxamide] are 3.34 µM and 0.000495 µM.
